Assay results from patent US20050034189A1, “Chitin oligosaccharide elicitor- and gibberellin-responsive genes in plants, and uses thereof” (National Institute of Agrobiological Sciences, priority 2001, published 2005).
Like-named read-outs stand apart in the source and are kept apart here.

What was measured:
nine plant bioassays = conditions: cited from earlier work
[1] = test system: CIGR1 gene and CIGR2 gene; assay: Gibberellin responsiveness of CIGR1 and CIGR2 genes in suspension-cultured rice cells, Northern blot hybridization; format: cell-based, rice (Oryza sativa cv. Nipponbare); conditions: for induction of CIGR1 and CIGR2 gene expression by gibberellin species: ten-minute treatment of cultured rice cells
Description: (§1) (1) Cultured rice cells: The cultured cells of rice were induced from germinating rice seeds (Oryza sativa cv. Nipponbare) on a N6 agar plate containing 1 ppm 2,4-D (auxin; 2,4-dichlorophenoxyacetic acid). The cells were successively cultured in liquid N6 medium as follows. Once a week, cells of about 1 ml in volume were transferred to 150 ml N6 medium. Every two weeks, sizes of the clusters of cells were reduced by passing through a 20-mesh metallic mesh. Unfiltered cells that were cultured while shaking for four to six days after transferring to a 30-ml medium, were used for Northern blotting's RNA extraction.
(§2) (2) RNA extraction: The extraction of total RNA from cultured cells and green leaves of rice was carried out following the phenol-SDS method. A Polytron homogenizer was used to homogenize tissue in the presence of phenol (about 90% saturated with water) of about tenfold or more volume to the tissue volume, and the same volume of extraction buffer solution (50 mM Tris-HCl pH 9.0, 1% SDS, 50 mM NaCl). The aqueous phase obtained by centrifugation was repeatedly extracted with phenol. The total nucleic acid was precipitated by adding 0.6 volume of isopropanol to the extract and then stirring the mixture. After dissolving the precipitate in water, 0.25 volume of 10 M LiCl was added, and the mixture was cooled on ice. High molecular weight RNA was collected by centrifugation, washed with 70% ethanol, and then dissolved in a small volume of water to be used as an RNA sample.
(3) A method for gibberellin treatment of cultured cells and green leaves: The cultured cells were pre-washed with 2,4-D-free N6 medium several times, and then suspended in the same medium and shaken for two hours at 25° C. Gibberellin (GA3 dissolved in ethanol) was added to make the respective final concentrations and the cells were cultured while shaking for a predetermined time and used for RNA extraction. Nipponbare plants, grown three weeks after seeding, were sprayed with gibberellin. The third and fourth leaves were collected at certain intervals and total RNA was extracted. Elicitor treatment was carried out by directly adding aqueous elicitor solutions to cultured cells of rice.
(4) Hybridization: RNA for the Northern hybridization was denatured by the glyoxal method. 2.7 μl of glyoxal (final concentration, 1 M), 1.6 μl of sodium phosphate (pH 7.0, final concentration, 10 mM), and 8 μl of dimethylsulfoxide (final concentration, 50%) were added to 10 μg of total RNA (3.7 μl). The mixture was kept at 50° C. for one hour and then subjected to electrophoresis in 1.4% agarose (10 mM sodium phosphate, pH 7.0). After electrophoresis, RNA was blotted onto a nylon membrane (Biodyne A) and RNA was fixed onto the membrane by treatment at 80° C. for two hours. Hybridization was carried out in a mixture of 50% formamide, 0.1% SDS, 0.1 mg/ml salmon sperm DNA, 5×SSPE (0.9 M NaCl, 50 mM sodium phosphate, 5 mM EDTA, pH 7.4), and 5× Denhardt's solution (0.1% bovine serum albumin, 0.1% Ficoll, 0.1% polyvinylpyrrolidone) at 42° C. for one day. The membrane was then washed with 0.1×SSC (15 mM NaCl, 1.5 mM sodium citrate) three times for five minutes each at room temperature and twice for 30 minutes each at 65° C. and then exposed on X-ray film.
Therefore, the present inventors examined the gibberellin responsiveness of CIGR1 and CIGR2 genes. Suspension-cultured cells were treated with GA3, which is one of the active-type gibberellins, and changes in the expression of these two genes were analyzed over time. […] To maintain cell division activity, the medium used for culturing plant cells contained 2,4-D, which is one of auxins that are not easily metabolized by plants. It was thought that 2,4-D might suppress the action of gibberellin. Therefore, the cells were pre-washed with 2,4-D-free medium, and after two hours of pre-culture in the same medium, the cells were treated with GA3. […]

[2] = test system: CIGR1 gene and CIGR2 gene; assay: Elicitor responsiveness of CIGR1 and CIGR2 genes in cultured rice cells, Northern blot hybridization; format: cell-based, rice (Oryza sativa cv. Nipponbare)
Description: as §1, §2
(3) A method for gibberellin treatment of cultured cells and green leaves: The cultured cells were pre-washed with 2,4-D-free N6 medium several times, and then suspended in the same medium and shaken for two hours at 25° C. […]
Both CIGR1 gene and CIGR2 gene were identified as elicitor responsive genes using DNA microarray analysis. The elicitor responsiveness of these two genes was analyzed using Northern blot hybridization method. […]

rice = conditions: reported; cited from earlier work
α-amylase = conditions: aleurone layer of wheat, cited from earlier work
[3] = test system: CIGR1 gene and CIGR2 gene; assay: Effect of inhibitors on induction of CIGR1 and CIGR2 genes by chitin heptamer in cultured rice cells; format: cell-based; conditions: inhibitor added ten minutes before; okadaic acid 1 μM, lavendustin A 30 μM, K-252a 20 μM
Description: (§3) FIG. 11 depicts photographs representing the effects of protein kinase inhibitors on elicitor response and gibberellin response. The following compounds were added ten minutes before the treatment with chitin heptamer (GN7) or gibberellin (GA3). (A): the positive control of the elicitor response; (B): okadaic acid (1 μM); (C), lavendustin A (30 μM); (D), K-252a (20 μM).
(§4) In addition, the effects of various inhibitors on the inductions by gibberellin and elicitors of CIGR1 gene and CIGR2 gene in the cultured rice cells were examined. Referring to the results of Kuo et al., cells pretreated with okadaic acid were tested. […] From these observations, protein phosphatase was presumed to be involved in signal transduction from gibberellin to CIGR1 gene and CIGR2 gene in cultured rice cells. Following these experiments, the effects of protein kinase inhibitors were studied.

[4] = test system: CIGR1 gene and CIGR2 gene; assay: Effect of inhibitors on induction of CIGR1 and CIGR2 genes by GA3 in cultured rice cells; format: cell-based; conditions: inhibitor added ten minutes before; okadaic acid 1 μM, lavendustin A 30 μM, K-252a 20 μM
Description: as §3, §4

[5] = test system: elicitor-responsive genes; conditions: pretreatment with K-252a; suspension-cultured rice cells; cited from earlier work
CHRC = conditions: cited from earlier work
[6] = test system: CIGR1 gene and CIGR2 gene; assay: Expression of CIGR1 and CIGR2 genes in green leaves of rice after GA3 spraying; format: in vivo, rice (Nipponbare); conditions: GA3 50 μM sprayed; third and fourth leaves, three weeks after seeding
Description: FIG. 10 depicts photographs representing the expression of CIGR1 gene and CIGR2 gene in green leaves of rice after GA3 treatment. After spraying rice plants with GA3, the third and fourth leaves were sampled at certain intervals. Total RNA extracted from the third and fourth leaves was analyzed by the Northern blot hybridization method.
as §2, with “sample. […]” for “sample.”
Cultured plant cells are thought to be in an undifferentiated state in the presence of auxins. […] Thus, the responses of these two genes to gibberellin were analyzed in green leaves of rice. […]

[7] = test system: PR1, PR10 and OsDRF1 genes; assay: Induction of PR1, PR10 and OsDRF1 genes after DEX treatment of transformed rice, oligoarray and Northern; format: in vivo, rice (Nipponbare); conditions: transformed line #7; DEX 30 μM spray
Description: FIG. 12 depicts photographs representing the occurrence of expression induction of PR1, PR10 and OsDRF1 genes on induction of CIGR2 gene expression by DEX using a DEX-inducing type promoter. Transformed rice plants #7 and #9 were spray-treated with DEX or ethanol (EtOH; 0.1% v/v). The amounts of mRNA for each gene were measured using northern blot hybridization after zero, 24, 48 and 72 hours.
Using Agrobacterium methods, the plasmid was introduced into rice (Nipponbare). The derived transformed rice was inbred, and second generation seeds were obtained. Each independent line was spray-treated with dexamethasone (DEX; 30 μM, ethanol solution). Over a time course, total RNAs were extracted by phenol methods from the above ground part of the plant. Northern hybridization was carried out using the cDNA of ^32P-labeled CIGR2 as a probe. […] This line was analyzed using a 60mer oligoarray (Agilent) constructed from a total-length rice cDNA library. As a result, induction of three genes (PR1(AK107926), PR10, and OsDRF1 (Defense Response Gene Family 1; AK100816)) was discovered 48-72 hours after dexamethasone treatment. PR1 and PR10 are known to be involved in disease resistance. […]

[8] = ten-minute GA3 treatment, 2,4-D-free medium

Row | SMILES | physiological activity type of gibberellin (nine plant bioassays) | induction of CIGR1 and CIGR2 gene expression by gibberellin species [1] | inhibition of induction of both genes by chitin heptamer [3] | inhibition of induction of both genes by GA3 [4] | other results
1 | C=C1C[C@]23C[C@@]1(O)CC[C@H]2[C@]1(C(=O)O)CCC[C@@](C)(C(=O)O)[C@H]1[C@@H]3C(=O)O [GA17] | inactive type | only active type gibberellins induced the expression | – | – | –
2 | CC(=O)N[C@H]1[C@H](O[C@@H]([C@H](O)[C@H](C=O)NC(C)=O)[C@H](O)CO)O[C@H](CO)[C@@H](O[C@@H]2O[C@H](CO)[C@@H](O[C@@H]3O[C@H](CO)[C@@H](O[C@@H]4O[C@H](CO)[C@@H](O[C@@H]5O[C@H](CO)[C@@H](O[C@@H]6O[C@H](CO)[C@@H](O)[C@H](O)[C@H]6NC(C)=O)[C@H](O)[C@H]5NC(C)=O)[C@H](O)[C@H]4NC(C)=O)[C@H](O)[C@H]3NC(C)=O)[C@H](O)[C@H]2NC(C)=O)[C@@H]1O [chitin heptamer, N-acetylchitoheptaose] | – | – | – | – | response (induction of expression) of both genes to chitin oligomers (monomer to heptamer) and chitosan oligomers (tetramer, heptamer) [2]: strongest response; time for which expression continued to increase after chitin heptamer treatment ([2]; both genes): up to 90 minutes; mRNA amount of CIGR1 and CIGR2 genes after treatment with chitin heptamer ([2]; five minutes after treatment, both genes): Significant increases of mRNA amount; elicitor activity in rice depending on oligomer size (rice): strongest effects
3 | C=C1[C@@H](O)[C@@H]2O[C@]3(CC[C@H](/C=C/[C@@H](C)[C@@H]4CC(C)=C[C@@]5(O[C@H](C[C@@](C)(O)C(=O)O)CC[C@H]5O)O4)O3)CC[C@H]2O[C@@H]1[C@@H](O)C[C@H](C)[C@H]1O[C@@]2(CCCCO2)CC[C@H]1C [okadaic acid] | – | – | hardly inhibited | inhibited almost completely | inhibition of gibberellin induction of α-amylase (α-amylase): specifically inhibited
4 | COC(=O)[C@@]1(O)C[C@H]2O[C@]1(C)n1c3ccccc3c3c4c(c5c6ccccc6n2c5c31)C(=O)NC4 [K-252-A] | – | – | almost completely | almost completely | inhibition of gibberellin induction of α-amylase (α-amylase; listed as K252a): hardly inhibited; inhibition of induction of expression of elicitor-responsive genes [5]: strongly inhibited
5 | C=C1C[C@]23C[C@@]1(O)CC[C@H]2[C@@]12CC[C@H](O)[C@@](C)(C(=O)O1)[C@H]2[C@@H]3C(=O)O [GA1] | active type | induced the expression of both genes | – | – | –
6 | C=C1C[C@]23C[C@H]1CC[C@H]2[C@@]12CC[C@H](O)[C@@](C)(C(=O)O1)[C@H]2[C@@H]3C(=O)O [GA4] | active type | induced the expression of both genes | – | – | –
7 | C=C1C[C@]23C[C@H]1CC[C@H]2[C@]1(C(=O)O)CC[C@H](O)[C@@](C)(C(=O)O)[C@H]1[C@@H]3C(=O)O [GA13] | inactive type | only active type gibberellins induced the expression | – | – | –
8 | O=C(O)c1cc(N(Cc2ccccc2O)Cc2cc(O)ccc2O)ccc1O [Lavendustin A] | – | – | hardly inhibited | almost completely | –
9 | C=C1C[C@]23C[C@@]1(O)CC[C@H]2[C@@]12C=C[C@H](O)[C@@](C)(C(=O)O1)[C@H]2[C@@H]3C(=O)O [GA3] | active type | induced the expression of both genes | – | – | GA3 concentration required for induction of CHRC by gibberellin (CHRC; chromoplasts of cucumber petals): at least 10^−7 M; GA3 concentration up to which CHRC expression level increased approximately linearly (CHRC; cucumber petals): up to 10^−4 M; expression of both genes in green leaves after GA3 spraying [6]: very rapid transient expression with a maximum at 30 minutes after spraying; expression after GA3 treatment ([1]; cells pre-washed and pre-cultured two hours in 2,4-D-free medium): Transient expression with a maximum at ten minutes after treatment; change in the amount of expression after GA3 treatment ([1]; medium containing 2,4-D, up to three hours after treatment, both genes): no significant change; GA3 concentration at which induction of expression of both genes began to appear [1, 8]: 10^−6 M; GA3 concentration at which induction reached near saturation [1, 8]: ~10^−4 M
10 | C[C@@H]1C[C@H]2[C@@H]3CCC4=CC(=O)C=C[C@]4(C)[C@@]3(F)[C@@H](O)C[C@]2(C)[C@@]1(O)C(=O)CO [dexamethasone] | – | – | – | – | time after dexamethasone treatment at which induction of PR1, PR10 and OsDRF1 was discovered [7]: 48 to 72 h
